Laboratory results reported in ChEMBL document CHEMBL1641588, “3-[Benzimidazo- and 3-[benzothiadiazoleimidazo-(1,2-c)quinazolin-5-yl]-2H-chromene-2-ones as potent antimicrobial agents” (2011).
Converted amounts (≈) assume the structure as drawn.

Tested on: Candida albicans
Test: Antifungal activity against Candida albicans by liquid dilution method
Type: functional
Conditions: not given

In order of falling MIC:
1. O=c1oc2c(Cl)cc(Cl)cc2cc1-c1nc2ccccc2c2nc3ccccc3n12  50 µg/mL (≈ 116 µM)
2. O=c1oc2c(Br)cccc2cc1-c1nc2ccccc2c2nc3ccccc3n12  40 µg/mL (≈ 90.4 µM)
3. O=c1oc2ccccc2cc1-c1nc2ccccc2c2nc3ccccc3n12  35 µg/mL (≈ 96.3 µM)

Tested on: Aspergillus niger
Test: Antifungal activity against Aspergillus niger by liquid dilution method
Type: functional
Conditions: not given

In order of rising MIC:
1. O=c1oc2ccccc2cc1-c1nc2ccccc2c2nc3ccccc3n12  25 µg/mL (≈ 68.8 µM)
2. O=c1oc2c(Cl)cc(Cl)cc2cc1-c1nc2ccccc2c2nc3ccccc3n12  35 µg/mL (≈ 81 µM)
3. O=c1oc2c(Br)cccc2cc1-c1nc2ccccc2c2nc3ccccc3n12  40 µg/mL (≈ 90.4 µM)

Tested on: Bacillus subtilis
Test: Antibacterial activity against Bacillus subtilis at 1000 ug/mL after 72 hrs by agar diffusion assay
Type: functional
Conditions: read-out: IZ

In order of falling zone of inhibition at 1000 µg/mL:
1. O=c1oc2c(Cl)cc(Cl)cc2cc1-c1nc2ccccc2c2nc3ccccc3n12  42 mm
2. O=c1oc2ccccc2cc1-c1nc2ccccc2c2nc3ccccc3n12  31 mm
3. O=c1oc2c(Br)cccc2cc1-c1nc2ccccc2c2nc3ccccc3n12  28 mm

Tested on: Streptococcus pyogenes
Test: Antibacterial activity against Streptococcus pyogenes at 1000 ug/mL after 72 hrs by agar diffusion assay
Type: functional
Conditions: read-out: IZ

In order of rising zone of inhibition at 1000 µg/mL:
1. O=c1oc2ccccc2cc1-c1nc2ccccc2c2nc3ccccc3n12  23 mm
2. O=c1oc2c(Br)cccc2cc1-c1nc2ccccc2c2nc3ccccc3n12  27 mm
3. O=c1oc2c(Cl)cc(Cl)cc2cc1-c1nc2ccccc2c2nc3ccccc3n12  38 mm

Tested on: Streptococcus pyogenes
Test: Antibacterial activity against Streptococcus pyogenes by liquid dilution method
Type: functional
Conditions: not given

In order of falling MIC:
1. O=c1oc2c(Br)cccc2cc1-c1nc2ccccc2c2nc3ccccc3n12  35 µg/mL (≈ 79.1 µM)
2. O=c1oc2ccccc2cc1-c1nc2ccccc2c2nc3ccccc3n12  30 µg/mL (≈ 82.6 µM)
3. O=c1oc2c(Cl)cc(Cl)cc2cc1-c1nc2ccccc2c2nc3ccccc3n12  10 µg/mL (≈ 23.1 µM)

Tested on: Aspergillus niger
Test: Antifungal activity against Aspergillus niger at 1000 ug/mL after 72 hrs by agar diffusion assay
Type: functional
Conditions: read-out: IZ

In order of falling zone of inhibition at 1000 µg/mL:
1. O=c1oc2c(Cl)cc(Cl)cc2cc1-c1nc2ccccc2c2nc3ccccc3n12  38 mm
2. O=c1oc2c(Br)cccc2cc1-c1nc2ccccc2c2nc3ccccc3n12  37 mm
3. O=c1oc2ccccc2cc1-c1nc2ccccc2c2nc3ccccc3n12  34 mm

Tested on: Salmonella typhimurium
Test: Antibacterial activity against Salmonella Typhimurium at 1000 ug/mL after 72 hrs by agar diffusion assay
Type: functional, Salmonella enterica subsp. enterica serovar Typhimurium
Conditions: Salmonella enterica, read-out: IZ

In order of rising zone of inhibition at 1000 µg/mL:
1. O=c1oc2c(Br)cccc2cc1-c1nc2ccccc2c2nc3ccccc3n12  29 mm
2. O=c1oc2ccccc2cc1-c1nc2ccccc2c2nc3ccccc3n12  32 mm
3. O=c1oc2c(Cl)cc(Cl)cc2cc1-c1nc2ccccc2c2nc3ccccc3n12  48 mm

Tested on: Escherichia coli
Test: Antibacterial activity against Escherichia coli at 1000 ug/mL after 72 hrs by agar diffusion assay
Type: functional
Conditions: read-out: IZ

In order of falling zone of inhibition at 1000 µg/mL:
1. O=c1oc2c(Cl)cc(Cl)cc2cc1-c1nc2ccccc2c2nc3ccccc3n12  44 mm
2. O=c1oc2ccccc2cc1-c1nc2ccccc2c2nc3ccccc3n12  38 mm
3. O=c1oc2c(Br)cccc2cc1-c1nc2ccccc2c2nc3ccccc3n12  28 mm

Tested on: Staphylococcus aureus
Test: Antibacterial activity against Staphylococcus aureus at 1000 ug/mL after 72 hrs by agar diffusion assay
Type: functional
Conditions: read-out: IZ

In order of rising zone of inhibition at 1000 µg/mL:
1. O=c1oc2ccccc2cc1-c1nc2ccccc2c2nc3ccccc3n12  36 mm
2. O=c1oc2c(Br)cccc2cc1-c1nc2ccccc2c2nc3ccccc3n12  39 mm
3. O=c1oc2c(Cl)cc(Cl)cc2cc1-c1nc2ccccc2c2nc3ccccc3n12  50 mm

Tested on: Staphylococcus aureus
Test: Antibacterial activity against Staphylococcus aureus by liquid dilution method
Type: functional
Conditions: not given

In order of falling MIC:
1. O=c1oc2c(Br)cccc2cc1-c1nc2ccccc2c2nc3ccccc3n12  40 µg/mL (≈ 90.4 µM)
2. O=c1oc2ccccc2cc1-c1nc2ccccc2c2nc3ccccc3n12  35 µg/mL (≈ 96.3 µM)
3. O=c1oc2c(Cl)cc(Cl)cc2cc1-c1nc2ccccc2c2nc3ccccc3n12  2.5 µg/mL (≈ 5.78 µM)

Tested on: Klebsiella pneumoniae
Test: Antibacterial activity against Klebsiella pneumoniae by liquid dilution method
Type: functional
Conditions: not given

In order of rising MIC:
1. O=c1oc2c(Cl)cc(Cl)cc2cc1-c1nc2ccccc2c2nc3ccccc3n12  5 µg/mL (≈ 11.6 µM)
2. O=c1oc2c(Br)cccc2cc1-c1nc2ccccc2c2nc3ccccc3n12  25 µg/mL (≈ 56.5 µM)
3. O=c1oc2ccccc2cc1-c1nc2ccccc2c2nc3ccccc3n12  30 µg/mL (≈ 82.6 µM)

Tested on: Aspergillus flavus
Test: Antifungal activity against Aspergillus flavus by liquid dilution method
Type: functional
Conditions: not given

In order of rising MIC:
1. O=c1oc2c(Br)cccc2cc1-c1nc2ccccc2c2nc3ccccc3n12  10 µg/mL (≈ 22.6 µM)
2. O=c1oc2c(Cl)cc(Cl)cc2cc1-c1nc2ccccc2c2nc3ccccc3n12  35 µg/mL (≈ 81 µM)
3. O=c1oc2ccccc2cc1-c1nc2ccccc2c2nc3ccccc3n12  40 µg/mL (≈ 110 µM)

Tested on: Aspergillus flavus
Test: Antifungal activity against Aspergillus flavus at 1000 ug/mL after 72 hrs by agar diffusion assay
Type: functional
Conditions: read-out: IZ

In order of rising zone of inhibition at 1000 µg/mL:
1. O=c1oc2ccccc2cc1-c1nc2ccccc2c2nc3ccccc3n12  32 mm
2. O=c1oc2c(Cl)cc(Cl)cc2cc1-c1nc2ccccc2c2nc3ccccc3n12  38 mm
3. O=c1oc2c(Br)cccc2cc1-c1nc2ccccc2c2nc3ccccc3n12  45 mm

Tested on: Klebsiella pneumoniae
Test: Antibacterial activity against Klebsiella pneumoniae at 1000 ug/mL after 72 hrs by agar diffusion assay
Type: functional
Conditions: read-out: IZ

In order of falling zone of inhibition at 1000 µg/mL:
1. O=c1oc2c(Cl)cc(Cl)cc2cc1-c1nc2ccccc2c2nc3ccccc3n12  47 mm
2. O=c1oc2ccccc2cc1-c1nc2ccccc2c2nc3ccccc3n12  34 mm
3. O=c1oc2c(Br)cccc2cc1-c1nc2ccccc2c2nc3ccccc3n12  31 mm

Tested on: Salmonella typhimurium
Test: Antibacterial activity against Salmonella Typhimurium by liquid dilution method
Type: functional, Salmonella enterica subsp. enterica serovar Typhimurium
Conditions: Salmonella enterica

In order of falling MIC:
1. O=c1oc2c(Br)cccc2cc1-c1nc2ccccc2c2nc3ccccc3n12  35 µg/mL (≈ 79.1 µM)
2. O=c1oc2ccccc2cc1-c1nc2ccccc2c2nc3ccccc3n12  25 µg/mL (≈ 68.8 µM)
3. O=c1oc2c(Cl)cc(Cl)cc2cc1-c1nc2ccccc2c2nc3ccccc3n12  2.5 µg/mL (≈ 5.78 µM)

Tested on: Bacillus subtilis
Test: Antibacterial activity against Bacillus subtilis by liquid dilution method
Type: functional
Conditions: not given

In order of falling MIC:
1. O=c1oc2ccccc2cc1-c1nc2ccccc2c2nc3ccccc3n12  45 µg/mL (≈ 124 µM)
2. O=c1oc2c(Br)cccc2cc1-c1nc2ccccc2c2nc3ccccc3n12  40 µg/mL (≈ 90.4 µM)
3. O=c1oc2c(Cl)cc(Cl)cc2cc1-c1nc2ccccc2c2nc3ccccc3n12  10 µg/mL (≈ 23.1 µM)

Tested on: Escherichia coli
Test: Antibacterial activity against Escherichia coli by liquid dilution method
Type: functional
Conditions: not given

In order of rising MIC:
1. O=c1oc2c(Cl)cc(Cl)cc2cc1-c1nc2ccccc2c2nc3ccccc3n12  10 µg/mL (≈ 23.1 µM)
2. O=c1oc2ccccc2cc1-c1nc2ccccc2c2nc3ccccc3n12  25 µg/mL (≈ 68.8 µM)
3. O=c1oc2c(Br)cccc2cc1-c1nc2ccccc2c2nc3ccccc3n12  45 µg/mL (≈ 102 µM)

Tested on: Candida albicans
Test: Antifungal activity against Candida albicans at 1000 ug/mL after 72 hrs by agar diffusion assay
Type: functional
Conditions: read-out: IZ

In order of falling zone of inhibition at 1000 µg/mL:
1. O=c1oc2c(Cl)cc(Cl)cc2cc1-c1nc2ccccc2c2nc3ccccc3n12  39 mm
2. O=c1oc2c(Br)cccc2cc1-c1nc2ccccc2c2nc3ccccc3n12  32 mm
3. O=c1oc2ccccc2cc1-c1nc2ccccc2c2nc3ccccc3n12  27 mm
